Reference: patent US20240140938A1, “PREPARATION OF TETRAHYDROINDAZOLE DERIVATIVES AS NOVEL DIACYLGLYCERIDE O-ACYLTRANSFERASE 2 INHIBITORS” (MERCK SHARP & DOHME LLC, priority 2020, published 2024)

Molecular target: human DGAT2 (hDGAT2) (Homo sapiens (Human), UniProt Q96PD7)
Test: DGAT2 Enzymatic Activity Assay
Format: biochemical
Settings: hDGAT2 Sf-9 membrane prep, 13C18-triolein product by LC/MS/MS
In short: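 Enzyme source was membrane fractions from Sf-9 cells infected with untagged hDGAT2 baculovirus. Reactions ran at room temperature, and product 13C18-triolein was quantified by LC/MS/MS against a 13C21-triolein internal standard. % inhibition was normalised to high and low controls, and IC50 derived from it.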

[1] = 25 μM diolein, 5 μM 13C oleoyl-CoA

Chain of human DGAT2 (hDGAT2) (Q96PD7 whole entry): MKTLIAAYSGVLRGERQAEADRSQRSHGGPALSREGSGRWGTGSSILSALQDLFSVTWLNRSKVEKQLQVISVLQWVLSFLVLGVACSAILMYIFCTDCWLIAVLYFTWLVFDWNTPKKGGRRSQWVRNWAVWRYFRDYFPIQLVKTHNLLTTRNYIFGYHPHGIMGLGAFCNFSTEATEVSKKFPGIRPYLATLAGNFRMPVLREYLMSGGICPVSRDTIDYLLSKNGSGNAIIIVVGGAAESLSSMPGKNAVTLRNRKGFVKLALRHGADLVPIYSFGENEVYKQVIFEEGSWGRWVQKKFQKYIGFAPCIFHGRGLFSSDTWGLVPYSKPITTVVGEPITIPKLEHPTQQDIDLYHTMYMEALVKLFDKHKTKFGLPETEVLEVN

SMILES | IC50 (unit given as nm) [µM] | IC50 [1] [µM]
CC1(NC(=O)C2Cc3c(c(-c4cccc(OC(F)F)c4)nn3C3CCOCC3)C(F)(F)C2)CCS(=O)(=O)C1 (stereo not shown) [Example 117, 3-(3-(difluoromethoxy)phenyl)-4,4-difluoro-N-(3-methyl-1,1-dioxidotetrahydrothiophen-3-yl)-1-(tetrahydro-2H-pyran-4-yl)-4,5,6,7-tetrahydro-1H-indazole-6-carboxamide] | 0.499 | –
Cc1ncc(OC(F)F)cc1-c1nn(C(C)C)c2c1CC[C@@H](C(=O)NC1(C)CS(=O)(=O)C1)C2 [Example 86, (R)-3-(5-(difluoromethoxy)-2-methylpyridin-3-yl)-1-isopropyl-N-(3-methyl-1,1-dioxidothietan-3-yl)-4,5,6,7-tetrahydro-1H-indazole-6-carboxamide] | – | 0.17
CC(C)n1nc(-c2cccc(OCC#N)c2)c2c1C[C@H](C(=O)NC1(C)CS(=O)(=O)C1)CC2 [Example 96, (R)-3-(3-(cyanomethoxy)phenyl)-1-isopropyl-N-(3-methyl-1,1-dioxidothietan-3-yl)-4,5,6,7-tetrahydro-1H-indazole-6-carboxamide] | – | > 10
C[C@]1(NC(=O)[C@@H]2CCc3c(-c4cncc(OC(F)F)c4)nn(-c4ccc(F)cn4)c3C2)CCS(=O)(=O)C1 [Example 14, (R)-3-(5-(difluoromethoxy)pyridin-3-yl)-1-(5-fluoropyridin-2-yl)-N-((S)-3-methyl-1,1-dioxidotetrahydrothiophen-3-yl)-4,5,6,7-tetrahydro-1H-indazole-6-carboxamide] | – | 0.0139
CC(C)n1nc(-c2cc(OCC(F)F)ncc2F)c2c1C[C@H](C(=O)NC1(C)CCS(=O)(=O)CC1)CC2 [Example 40, (R)-3-(2-(2,2-difluoroethoxy)-5-fluoropyridin-4-yl)-1-isopropyl-N-(4-methyl-1,1-dioxidotetrahydro-2H-thiopyran-4-yl)-4,5,6,7-tetrahydro-1H-indazole-6-carboxamide] | – | 0.0046
CC1(NC(=O)[C@@H]2CCc3c(-c4cc(OC(F)F)ccc4F)nn(S(C)(=O)=O)c3C2)CS(=O)(=O)C1 [Example 115, (R)-3-(5-(difluoromethoxy)-2-fluorophenyl)-N-(3-methyl-1,1-dioxidothietan-3-yl)-1-(methylsulfonyl)-4,5,6,7-tetrahydro-1H-indazole-6-carboxamide] | 0.107 | –
CC(C)n1nc(-c2cc(OC(F)(F)F)cnc2Cl)c2c1C[C@H](C(=O)NC1(C)CS(=O)(=O)C1)CC2 [Example 88, (R)-3-(2-chloro-5-(trifluoromethoxy)pyridin-3-yl)-1-isopropyl-N-(3-methyl-1,1-dioxidothietan-3-yl)-4,5,6,7-tetrahydro-1H-indazole-6-carboxamide] | – | 0.275
CC(C)n1nc(-c2cc(OC(F)F)ccc2F)c2c1C[C@H](C(=O)NC1(C)CS(=O)(=O)C1)OC2 [Example 127, (R)-3-(5-(difluoromethoxy)-2-fluorophenyl)-1-isopropyl-N-(3-methyl-1,1-dioxidothietan-3-yl)-1,4,6,7-tetrahydropyrano[4,3-c]pyrazole-6-carboxamide] | – | 0.343
CC(C)n1nc(-c2cc(OC(F)F)ncc2F)c2c1C[C@H](C(=O)N[C@@]1(C)CCS(=O)(=O)C1)CC2 [Example 41, (R)-3-(2-(difluoromethoxy)-5-fluoropyridin-4-yl)-1-isopropyl-N-((S)-3-methyl-1,1-dioxidotetrahydrothiophen-3-yl)-4,5,6,7-tetrahydro-1H-indazole-6-carboxamide] | – | 0.139
CC(C)n1nc(-c2cccc(OC(F)F)c2)c2c1C[C@H](C(=O)NCCN1CCS(=O)(=O)CC1)CC2 [Example 70, (R)-3-(3-(difluoromethoxy)phenyl)-N-(2-(1,1-dioxidothiomorpholino)ethyl)-1-isopropyl-4,5,6,7-tetrahydro-1H-indazole-6-carboxamide] | – | 18
CC(n1nc(-c2cccc(OC(F)F)c2)c2c1C[C@H](C(=O)NC1(C)CCS(=O)(=O)CC1)CC2)C(C)(C)O (single isomer, unassigned) [Example 111a] | – | 2.07
CC(n1nc(-c2cc(OCC(F)(F)F)ncc2F)c2c1C[C@H](C(=O)N[C@@]1(C)CCS(=O)(=O)C1)CC2)C(C)(C)O (single isomer, unassigned) [Example 112b] | – | 0.0316
CC(C)n1nc(-c2cc(OC3CC3)ccc2F)c2c1C[C@H](C(=O)NC1(C)CS(=O)(=O)C1)CC2 [Example 85, (R)-3-(5-cyclopropoxy-2-fluorophenyl)-1-isopropyl-N-(3-methyl-1,1-dioxidothietan-3-yl)-4,5,6,7-tetrahydro-1H-indazole-6-carboxamide] | – | 0.0156
CC(C1CC1)n1nc(-c2cc(OC(F)F)ccc2F)c2c1C[C@H](C(=O)NC1(C)CS(=O)(=O)C1)CC2 (single isomer, unassigned) [Example 58a] | – | 0.0234
C[C@]1(NC(=O)[C@H]2Cc3c(c(-c4cccc(OC(F)F)c4)nn3C3CCOCC3)C(F)(F)C2)CCS(=O)(=O)C1 (single isomer, unassigned) [Example 117b] | – | 0.178
CC1(NC(=O)[C@@H]2CCc3c(-c4cc(OC(F)F)ccc4F)nn(C4CCCC4O)c3C2)CS(=O)(=O)C1 (single isomer, unassigned) [Example 114d] | – | 0.105
CC(C)n1nc(-c2cc(OC(F)F)ccc2F)c2c1C[C@H](C(=O)N[C@]1(C)CCS(=O)(=O)C1)CC2 [Example 29, (R)-3-(5-(difluoromethoxy)-2-fluorophenyl)-1-isopropyl-N-((R)-3-methyl-1,1-dioxidotetrahydrothiophen-3-yl)-4,5,6,7-tetrahydro-1H-indazole-6-carboxamide] | – | 0.0601
CC(n1nc(-c2cc(OCC(F)(F)F)ncc2F)c2c1C[C@H](C(=O)NC1(C#N)CCS(=O)(=O)CC1)CC2)C(C)(C)O (single isomer, unassigned) [Example 113b] | – | 0.0703
CC(C)n1nc(-c2cccc(S(C)(=O)=O)c2)c2c1C[C@H](C(=O)NC1(C)CS(=O)(=O)C1)CC2 [Example 98, (R)-1-isopropyl-N-(3-methyl-1,1-dioxidothietan-3-yl)-3-(3-(methylsulfonyl)phenyl)-4,5,6,7-tetrahydro-1H-indazole-6-carboxamide] | – | > 10
CC(C#N)n1nc(-c2cc(OC(F)F)ccc2F)c2c1C[C@H](C(=O)NC1(C)CS(=O)(=O)C1)CC2 (stereo partly drawn) [Example 79, (6R)-1-(1-cyanoethyl)-3-(5-(difluoromethoxy)-2-fluorophenyl)-N-(3-methyl-1,1-dioxidothietan-3-yl)-4,5,6,7-tetrahydro-1H-indazole-6-carboxamide] | – | 0.0591
CC1(NC(=O)C2COc3c(-c4cccc(OC(F)F)c4)nn(-c4ccc(F)cn4)c3C2)CS(=O)(=O)C1 (racemic) [Example 119, 3-(3-(difluoromethoxy)phenyl)-1-(5-fluoropyridin-2-yl)-N-(3-methyl-1,1-dioxidothietan-3-yl)-1,5,6,7-tetrahydropyrano[3,2-c]pyrazole-6-carboxamide] | – | 0.00033
CC(C)n1nc(-c2cccc(OC(F)F)c2)c2c1C[C@H](C(=O)N[C@@H](C)CO)CC2 [Example 65, (R)-3-(3-(difluoromethoxy)phenyl)-N-((S)-1-hydroxypropan-2-yl)-1-isopropyl-4,5,6,7-tetrahydro-1H-indazole-6-carboxamide] | – | 7.26
